This note sets out measurements from US20230141603A1, “BENZODIAZEPINE DERIVATIVES AS GABA A GAMMA1 PAM” (Hoffmann-La Roche Inc., priority 2021, published 2023).

pKi: −log10 of the molar value.

This assay concerns the target T1, h-GABAA α5β2γ1 (Homo sapiens, UniProt P31644+Q8N1C3).
T1 construct: expressed in transfected cells; host or cells: HEK293F cells (ThermoFisher R79007), membranes
T1 sequence (P31644 32-462): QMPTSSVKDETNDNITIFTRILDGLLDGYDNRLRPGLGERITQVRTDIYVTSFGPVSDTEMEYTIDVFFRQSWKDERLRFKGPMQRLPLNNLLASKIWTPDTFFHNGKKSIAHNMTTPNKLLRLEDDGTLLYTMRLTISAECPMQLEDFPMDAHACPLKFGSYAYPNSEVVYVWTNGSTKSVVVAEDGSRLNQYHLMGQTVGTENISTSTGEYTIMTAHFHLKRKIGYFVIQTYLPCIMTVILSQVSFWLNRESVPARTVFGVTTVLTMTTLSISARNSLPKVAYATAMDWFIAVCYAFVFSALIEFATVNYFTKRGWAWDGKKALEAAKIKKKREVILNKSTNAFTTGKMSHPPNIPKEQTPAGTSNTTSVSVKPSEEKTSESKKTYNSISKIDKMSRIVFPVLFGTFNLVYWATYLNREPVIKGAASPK
T1 sequence (P47870 25-512 partner limits assumed): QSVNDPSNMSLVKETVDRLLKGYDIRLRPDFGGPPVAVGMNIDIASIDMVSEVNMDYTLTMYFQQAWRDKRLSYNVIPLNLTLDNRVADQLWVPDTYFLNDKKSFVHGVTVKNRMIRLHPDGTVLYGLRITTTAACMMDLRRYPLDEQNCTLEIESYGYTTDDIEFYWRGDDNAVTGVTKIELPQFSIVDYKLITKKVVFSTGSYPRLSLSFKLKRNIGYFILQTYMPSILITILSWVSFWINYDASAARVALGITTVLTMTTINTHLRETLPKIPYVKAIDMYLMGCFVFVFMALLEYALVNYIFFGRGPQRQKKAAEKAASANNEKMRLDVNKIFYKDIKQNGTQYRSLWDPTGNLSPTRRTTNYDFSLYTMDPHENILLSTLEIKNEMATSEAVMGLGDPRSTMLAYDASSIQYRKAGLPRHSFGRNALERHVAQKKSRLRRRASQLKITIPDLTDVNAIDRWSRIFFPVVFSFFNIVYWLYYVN
T1 sequence (Q8N1C3 36-465): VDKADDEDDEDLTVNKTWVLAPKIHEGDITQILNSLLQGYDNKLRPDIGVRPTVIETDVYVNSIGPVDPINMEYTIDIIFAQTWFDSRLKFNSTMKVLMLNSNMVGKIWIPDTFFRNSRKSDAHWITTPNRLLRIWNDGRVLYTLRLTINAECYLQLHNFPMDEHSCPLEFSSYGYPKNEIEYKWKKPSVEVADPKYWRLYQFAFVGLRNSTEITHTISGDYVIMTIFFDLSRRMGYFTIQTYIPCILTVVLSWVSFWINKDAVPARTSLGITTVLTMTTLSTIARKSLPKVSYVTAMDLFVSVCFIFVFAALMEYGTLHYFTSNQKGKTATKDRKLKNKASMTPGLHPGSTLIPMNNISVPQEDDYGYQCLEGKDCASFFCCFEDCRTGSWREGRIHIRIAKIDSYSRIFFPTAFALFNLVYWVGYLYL
Description: Radioligand binding assay, [3H]RO7239181 competition, HEK293F membranes. How it is done:
The affinity of compounds at GABAA γ1 subunit-containing receptors was measured by competition for [^3H]RO7239181 (67.3 Ci/mmol; Roche) binding to membranes from HEK293F cells (ThermoFisher R79007) expressing human (transiently transfected) receptors of composition […], α2β2γ1, α1β2γ1. For better protein expression of the α2 subunit-containing receptors, the 28 amino acid long signal peptide (Met1 to Ala28) of the human GABAA α2 subunit was substituted by the 31 amino acid long signal peptide (Met1 to Ser31) of human GABAA α5 subunit.
Harvested pellets from HEK293F cells expressing the different GABAA receptor subtypes were resuspended in Mannitol Buffer pH 7.2-7.4 (Mannitol 0.29M, Triethylamine 10 mM, Acetic acid 10 mM, EDTA 1 mM plus protease inhibitors (20 tablets Complete, Roche Diagnostics Cat. No. 05 056 489 001 per liter)), washed two times and then resuspended at 1:10 to 1:15 dilution in the same buffer. Cell disruption was performed by stirring the suspension in a Parr vessel #4637 at 435 psi for 15 minutes, and then the suspensions were centrifuged at 1000×g for 15 minutes at 4° C. (Beckman Avanti J-HC; rotor JS-4.2). The supernatant (S1) was transferred in a 21 Schott flask and the pellet (P1) was resuspended with Mannitol Buffer up to 175 ml. The resuspended pellet was transferred into a 250 ml Corning centrifugal beaker and centrifuged at 1500×g for 10 minutes at 4° C. (Beckman Avanti J-HC; rotor JS-4.2). The supernatant (S1) was then transferred in the 21 Schott flask and the pellet was discarded. The supernatants (S1) were centrifuged in 500 ml Beckman polypropylene centrifugal beaker at 15′000×g for 30 minutes at 4° C. (Beckman Avanti J-20 XP; rotor JLA-10.500). The pellet (P2) was resuspended with Mannitol Buffer 1:1 and frozen at −80° C. The supernatant (S2) was centrifuged in 100 ml Beckman polypropylene centrifugal tubes at 48000×g for 50 minutes at 4° C. (Beckman Avanti J-20 XP; rotor JA-18). The supernatant (S3) was discarded and the pellet (P3) was resuspended with 1:1 Mannitol Buffer. The P2 and P3 protein concentration was determined with the BIORAD Standard assay method with bovine serum albumin as standard and measured on the NANO-Drop 1000. The membrane suspension was aliquots (500 μl per tube) and stored at −80° C. until required. Membrane homogenates were resuspended and polytronised (Polytron PT1200E Kinematica AG) in Potassium Phosphate 10 mM, KCl 100 mM binding buffer at pH 7.4 to a final assay concentration determined with a previous experiment.
Radioligand binding assays were carried out in a volume of 200 μL (96-well plates) which contained 100 μL of cell membranes, [^3H]RO7239181 at a concentration of 1.5 nM (α5β2γ1) or 20-30 nM (α1β2γ1, α2β2γ1) and the test compound in the range of [0.3-10000]×10^−9 M. Nonspecific binding was defined by 10×10^−6 (α5β2γ1) and 30×10^−6 M RO7235136 and typically represented less than 5% (α5β2γ1) and less than 20% (α1β2γ1, α2β2γ1) of the total binding. Assays were incubated to equilibrium for 1 hour at 4° C. and then, membranes were filtered onto unifilter (96-well white microplate with bonded GF/C filters preincubated 20-50 minutes in 0.3% Polyethylenimine) with a Filtermate 196 harvester (Packard BioScience) and washed 4 times with cold Potassium Phosphate 10 mM pH 7.4, KCl 100 mM binding buffer. After drying, filter-retained radioactivity was detected by liquid scintillation counting. Ki values were calculated using Excel-Fit (Microsoft) and are the means of two determinations.
As usually defined, the pKi is −log10 of the Ki, conventionally taken in molar units. A low value points to a high Ki. As to `Cn1cc(-c2nnc3n2-c2ccc(C(F)(F)F)c(Cl)c2C(c2ncccc2F)=NC3)cn1` [Example 70, 7-chloro-6-(3-fluoro-2-pyridyl)-1-(1-methylpyrazol-4-yl)-8-(trifluoromethyl)-4H-[1,2,4]triazolo[4,3-a][1,4]benzodiazepine], the pKi is 8.17.

As for `COCCc1nnc2n1-c1ccc(Cl)c(Cl)c1C(c1c(F)cccc1F)=NC2` [Example 19, 7,8-dichloro-6-(2,6-difluorophenyl)-1-(2-methoxyethyl)-4H-[1,2,4]triazolo[4,3-a][1,4]benzodiazepine], the pKi was 8.60. `Fc1cccc(F)c1C1=NCc2nnc(-c3ccncn3)n2-c2ccc(Cl)c(Cl)c21` [Example 12, 7,8-dichloro-6-(2,6-difluorophenyl)-1-pyrimidin-4-yl-4H-[1,2,4]triazolo[4,3-a][1,4]benzodiazepine]: the pKi was 8.64. As to `COc1ccc2c(c1Cl)C(c1c(F)cccc1F)=NCc1nnc(C3CC3)n1-2` [Example 79, 7-chloro-1-cyclopropyl-6-(2,6-difluorophenyl)-8-methoxy-4H-[1,2,4]triazolo[4,3-a][1,4]benzodiazepine], the pKi was 8.17. As for `COc1ccc2c(c1Cl)C(c1c(F)cccc1F)=NCc1nnc(-c3cccnn3)n1-2` [Example 57, 7-chloro-6-(2,6-difluorophenyl)-8-methoxy-1-pyridazin-3-yl-4H-[1,2,4]triazolo[4,3-a][1,4]benzodiazepine], the figure is 8.34; as for `Fc1cccc(F)c1C1=NCc2nnc(-c3ccncn3)n2-c2ccc(Br)c(Br)c21` [Example 43, 7,8-dibromo-6-(2,6-difluorophenyl)-1-pyrimidin-4-yl-4H-[1,2,4]triazolo[4,3-a][1,4]benzodiazepine], 8.85; as for `Fc1cccnc1C1=NCc2nnc(-c3cccnn3)n2-c2ccc(Cl)c(Cl)c21` [Example 54, 7,8-dichloro-6-(3-fluoro-2-pyridyl)-1-pyridazin-3-yl-4H-[1,2,4]triazolo[4,3-a][1,4]benzodiazepine], 8.42. For `Cn1cc(-c2nnc3n2-c2ccc(Cl)c(Cl)c2C(c2c(F)cccc2F)=NC3)cn1` [Example 28, 7,8-dichloro-6-(2,6-difluorophenyl)-1-(1-methylpyrazol-4-yl)-4H-[1,2,4]triazolo[4,3-a][1,4]benzodiazepine], the pKi is 8.85. As for `Fc1cccc(F)c1C1=NCc2nnc(-c3cccnn3)n2-c2ccc(C(F)(F)F)c(Cl)c21` [Example 38, 7-chloro-6-(2,6-difluorophenyl)-1-pyridazin-3-yl-8-(trifluoromethyl)-4H-[1,2,4]triazolo[4,3-a][1,4]benzodiazepine], the figure is 8.72.

In the case of `Fc1cccnc1C1=NCc2nnc(-c3ccncn3)n2-c2ccc(C(F)(F)F)c(Cl)c21` [Example 69, 7-chloro-6-(3-fluoro-2-pyridyl)-1-pyrimidin-4-yl-8-(trifluoromethyl)-4H-[1,2,4]triazolo[4,3-a][1,4]benzodiazepine], the pKi is 8.15. As for `Cc1nnc2n1-c1ccc(Cl)c(Cl)c1C(c1c(F)cccc1F)=NC2` [Example 5, 7,8-dichloro-6-(2,6-difluorophenyl)-1-methyl-4H-[1,2,4]triazolo[4,3-a][1,4]benzodiazepine], the figure is 9.10; as for `Cc1ccc2c(c1Cl)C(c1c(F)cccc1F)=NCc1nnc(-c3cccnn3)n1-2` [Example 48, 7-chloro-6-(2,6-difluorophenyl)-8-methyl-1-pyridazin-3-yl-4H-[1,2,4]triazolo[4,3-a][1,4]benzodiazepine], 8.96. `Cc1ccc2c(c1Cl)C(c1c(F)cccc1F)=NCc1nncn1-2` [Example 17, 7-chloro-6-(2,6-difluorophenyl)-8-methyl-4H-[1,2,4]triazolo[4,3-a][1,4]benzodiazepine] showed a pKi of 8.89. As for `O=c1[nH]nc2n1-c1ccc(Br)c(Cl)c1C(c1c(F)cccc1F)=NC2` [Example 13, 8-bromo-7-chloro-6-(2,6-difluorophenyl)-2,4-dihydro-[1,2,4]triazolo[4,3-a][1,4]benzodiazepin-1-one], the figure is 8.96. For the molecule `O=c1[nH]nc2n1-c1ccc(Cl)c(Cl)c1C(c1ncccc1F)=NC2` [Example 59, 7,8-dichloro-6-(3-fluoro-2-pyridyl)-2,4-dihydro-[1,2,4]triazolo[4,3-a][1,4]benzodiazepin-1-one], the pKi was 8.23. The molecule `Fc1cccc(F)c1C1=NCc2nnc(-c3cccnn3)n2-c2ccc(Cl)c(Cl)c21` [Example 14, 7,8-dichloro-6-(2,6-difluorophenyl)-1-pyridazin-3-yl-4H-[1,2,4]triazolo[4,3-a][1,4]benzodiazepine] had a pKi of 9.10. `Fc1ccccc1C1=NCc2nnc(-c3cccnn3)n2-c2ccc(C(F)(F)F)c(Cl)c21` [Example 27, 7-chloro-6-(2-fluorophenyl)-1-pyridazin-3-yl-8-(trifluoromethyl)-4H-[1,2,4]triazolo[4,3-a][1,4]benzodiazepine]: the pKi is 8.20.

Molecule `Fc1cccnc1C1=NCc2nnc(C3CC3)n2-c2ccc(Cl)c(Cl)c21` [Example 65, 7,8-dichloro-1-cyclopropyl-6-(3-fluoro-2-pyridyl)-4H-[1,2,4]triazolo[4,3-a][1,4]benzodiazepine] had a pKi of 8.11. `Cc1ccc2c(c1Cl)C(c1c(F)cccc1F)=NCc1nnc(-c3ccncn3)n1-2` [Example 49, 7-chloro-6-(2,6-difluorophenyl)-8-methyl-1-pyrimidin-4-yl-4H-[1,2,4]triazolo[4,3-a][1,4]benzodiazepine] showed a pKi of 8.77.
